Laboratory results taken from ChEMBL document CHEMBL1201862, “PubChem BioAssay data set” (2004).
Blank lines part the entries; values can stand above or below the molecule they belong to. The source made the active and inactive calls.

Legend:
[1] = biological target: T1, Trace amine-associated receptor 1 (Homo sapiens, UniProt Q96RJ0); assay: Fluorescence-based cell-based high throughput dose response assay to identify antagonists of the human trace amine associated receptor 1 (TAAR1).; type: functional
T1 sequence (Q96RJ0 whole entry): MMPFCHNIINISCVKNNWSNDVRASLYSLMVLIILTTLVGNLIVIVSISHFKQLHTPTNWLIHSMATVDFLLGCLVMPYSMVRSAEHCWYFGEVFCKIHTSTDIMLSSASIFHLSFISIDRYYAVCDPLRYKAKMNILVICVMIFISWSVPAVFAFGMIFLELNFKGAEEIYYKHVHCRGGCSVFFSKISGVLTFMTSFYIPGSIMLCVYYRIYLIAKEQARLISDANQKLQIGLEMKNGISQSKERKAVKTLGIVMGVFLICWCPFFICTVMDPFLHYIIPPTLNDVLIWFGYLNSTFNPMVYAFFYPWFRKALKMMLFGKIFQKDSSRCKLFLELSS

[2] = biological target: T1, Trace amine-associated receptor 1; assay: Counterscreen for antagonists of the human trace amine associated receptor 1 (hTAAR1): Fluorescence-based cell-based high throughput dose response assay to identify TAAR1 Agonists.; type: functional
[3] = Counterscreen for antagonists of the human trace amine associated receptor 1 (hTAAR1): Fluorescence-based cell-based high throughput dose response assay to identify nonselective Ga16 antagonists.; type: functional
[4] = Counterscreen for […] of the human trace amine associated receptor 1 (TAAR1): Fluorescence-based cell-based high throughput dose response assay to identify nonselective Ga16 agonists.; type: functional
[5] = activation of miR-122 Renilla sensor silencing – cell-based, Huh7 psiCHECK-miR122, Renilla luciferase, cherry-picked, dose response (AID 651956); type: functional;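 also: huh7 hepatoma cells stably carrying a psiCHECK-2 miR-122 sensor plasmid; renilla luciferase signal reporting endogenous miR-122 activity after 48 h compound exposure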
[6] = LMP1-induced NF-kB luciferase signal inhibition – cell-based, EBV LMP1, dry powder, set 2, dose response (AID 624361); type: functional
[7] = inhibitors of EBV LMP1 NF-kappaB signaling – cell-based, luciferase reporter, luminescence, dry powder, set 2, dose response (AID 624376); type: functional
[8] = MITF Orthogonal Assay: SK-MEL-5 CTG Assay Measured in Cell-Based System Using Plate Reader - 2084-02_Inhibitor_Dose_DryPowder_Activity_Set7.; type: functional
[9] = inhibitors of TRPM1-promoter reporter in SK-MEL-5 – cell-based, luciferase, dry powder, set 8, MITF inhibitor project, dose response (AID 624430); type: functional
[10] = MITF: Counter assay: A375 proliferation Measured in Cell-Based System Using Plate Reader - 2084-03_Inhibitor_Dose_DryPowder_Activity_Set8.; type: functional; conditions: A-375
[11] = biological target: Endoplasmic reticulum aminopeptidase 1 (Homo sapiens, UniProt Q9NZ08); assay: inhibition of human ERAP1 enzyme activity – biochemical, cherry-pick, set 2, plate reader, dose response (AID 743314)
cells [12] = conditions: HEK293
[13] = biological target: T2, Heat shock factor protein 1 (Mus musculus, UniProt P38532); assay: decrease of HSF1-responsive luciferase luminescence – cell-based, NIH3T3, dose retest, confirmation (AID 2382); type: functional;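 also: NIH3T3 fibroblasts with HSF1-driven luciferase reporter stressed by proteasome inhibitor MG132; luminescence from HSF1-driven luciferase expression after 8 hours of MG132 stress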
T2 sequence (P38532 whole entry): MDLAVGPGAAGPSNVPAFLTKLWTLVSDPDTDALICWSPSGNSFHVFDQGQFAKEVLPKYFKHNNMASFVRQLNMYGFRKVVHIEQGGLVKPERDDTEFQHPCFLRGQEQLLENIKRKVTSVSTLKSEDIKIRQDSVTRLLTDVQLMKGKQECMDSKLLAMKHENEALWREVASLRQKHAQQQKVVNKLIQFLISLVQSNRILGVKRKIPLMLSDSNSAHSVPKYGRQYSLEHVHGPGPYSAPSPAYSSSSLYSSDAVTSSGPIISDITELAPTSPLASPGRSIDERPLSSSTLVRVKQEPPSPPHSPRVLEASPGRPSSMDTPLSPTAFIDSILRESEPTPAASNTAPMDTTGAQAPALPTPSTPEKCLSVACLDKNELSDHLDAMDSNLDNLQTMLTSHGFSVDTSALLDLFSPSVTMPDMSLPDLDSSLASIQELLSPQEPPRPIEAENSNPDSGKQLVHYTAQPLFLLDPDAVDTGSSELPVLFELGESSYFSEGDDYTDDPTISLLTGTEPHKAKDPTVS

[14] = potency of ADAM10 substrate cleavage blockers – biochemical, QFRET, dose response (AID 743254);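 also: ADAM10 enzyme with the DM2 quenched FRET peptide as substrate; EDANS fluorescence gain as the protease cuts the substrate; inhibitor potency against ADAM10 proteolytic activity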
[15] = biological target: Disintegrin and metalloproteinase domain-containing protein 17 (Homo sapiens, UniProt P78536); assay: inhibition of ADAM17 substrate cleavage – biochemical, quenched FRET substrate, counter-screen for ADAM10 exosite inhibitor project, dose response (AID 743253)
[16] = biological target: T3, Calpain-2 catalytic subunit (Sus scrofa, UniProt P43367); assay: m-calpain protease blockers, concentration series – biochemical, fluorogenic peptide substrate, dose response (AID 1420); type: functional
T3 sequence (P43367 whole entry): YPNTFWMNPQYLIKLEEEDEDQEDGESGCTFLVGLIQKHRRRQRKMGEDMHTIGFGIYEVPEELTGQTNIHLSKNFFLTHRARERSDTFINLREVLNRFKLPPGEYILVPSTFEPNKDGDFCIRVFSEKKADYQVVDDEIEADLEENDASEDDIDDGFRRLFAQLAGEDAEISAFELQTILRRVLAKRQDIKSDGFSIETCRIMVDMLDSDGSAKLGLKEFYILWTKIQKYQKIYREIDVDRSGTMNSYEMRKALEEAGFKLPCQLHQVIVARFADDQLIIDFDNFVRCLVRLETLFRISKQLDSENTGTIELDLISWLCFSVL

[17] = biological target: T4, Beta-2 adrenergic receptor (Homo sapiens, UniProt P07550); assay: ADRB2 activation measured by internalization – cell-based, FAP fluorogen, flow cytometry, cherry pick 1, dose response (AID 588763); type: functional
[18] = biological target: T4, Beta-2 adrenergic receptor; assay: Dose response for HTS for Beta-2AR agonists via FAP method from Powderset3.; type: functional
Galanin receptor type 3 = Galanin receptor type 3 (Homo sapiens, UniProt O60755); assay: Fluorescence-based cell-based primary high throughput dose response assay to identify antagonists of the Galanin Receptor 3 (GalR3).; type: functional
cells [19] = type: functional, cell-based; conditions: HEK-CNG
[20] = biological target: ADP-ribosylation factor GTPase-activating protein 1 (Rattus norvegicus, UniProt Q62848); assay: Fluorescence polarization-based biochemical high throughput dose response screening assay to identify inhibitors of ADP-ribosylation factor GTPase activating protein 1 (ARFGAP1).; type: functional
[21] = OVCAR-3 cell viability loss – plate reader, dry powder samples, PAX8 inhibitor project, dose response (AID 743044); type: functional, cell-based
[22] = toxicity toward immortalized ovarian surface epithelium – cell-based, plate reader, dry powder samples, cytotoxicity control for PAX8 inhibitor project, dose response (AID 743045); type: functional
Paired box protein Pax-8 = Paired box protein Pax-8 (Homo sapiens, UniProt Q06710); assay: PAX8 transcriptional activity inhibition in RMG-I – RMG-I cells, luciferase, cherry-pick, dose response (AID 687027); type: functional, cell-based;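 also: luciferase reporter driven by Pax8 target thyroperoxidase promoter measured by SteadyGlo luminescence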
[23] = A2780 cell killing – plate reader, dry powder samples, cytotoxicity control, dose response (AID 743046); type: functional, cell-based
[24] = OVCAR8 cell viability loss – plate reader, dry powder samples, PAX8 project, dose response (AID 743197); type: functional, cell-based; conditions: OVCAR-8
[25] = IGROV1 cell killing – plate reader, dry powder samples, PAX8 inhibitor project, dose response (AID 743043); type: functional, cell-based; conditions: IGROV-1

T4 sequence (P07550 whole entry): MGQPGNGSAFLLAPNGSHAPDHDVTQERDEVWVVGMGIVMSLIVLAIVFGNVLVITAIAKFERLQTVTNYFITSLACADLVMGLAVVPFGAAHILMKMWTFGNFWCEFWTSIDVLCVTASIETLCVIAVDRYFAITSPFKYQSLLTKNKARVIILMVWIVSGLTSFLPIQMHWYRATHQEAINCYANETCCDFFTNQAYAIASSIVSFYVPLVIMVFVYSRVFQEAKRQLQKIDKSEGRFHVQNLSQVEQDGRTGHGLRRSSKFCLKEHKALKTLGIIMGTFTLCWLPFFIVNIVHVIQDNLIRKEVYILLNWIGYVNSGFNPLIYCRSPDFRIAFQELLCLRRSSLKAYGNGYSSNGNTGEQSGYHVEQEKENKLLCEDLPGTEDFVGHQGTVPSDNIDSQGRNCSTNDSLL
Paired box protein Pax-8, sequence (Q06710 whole entry): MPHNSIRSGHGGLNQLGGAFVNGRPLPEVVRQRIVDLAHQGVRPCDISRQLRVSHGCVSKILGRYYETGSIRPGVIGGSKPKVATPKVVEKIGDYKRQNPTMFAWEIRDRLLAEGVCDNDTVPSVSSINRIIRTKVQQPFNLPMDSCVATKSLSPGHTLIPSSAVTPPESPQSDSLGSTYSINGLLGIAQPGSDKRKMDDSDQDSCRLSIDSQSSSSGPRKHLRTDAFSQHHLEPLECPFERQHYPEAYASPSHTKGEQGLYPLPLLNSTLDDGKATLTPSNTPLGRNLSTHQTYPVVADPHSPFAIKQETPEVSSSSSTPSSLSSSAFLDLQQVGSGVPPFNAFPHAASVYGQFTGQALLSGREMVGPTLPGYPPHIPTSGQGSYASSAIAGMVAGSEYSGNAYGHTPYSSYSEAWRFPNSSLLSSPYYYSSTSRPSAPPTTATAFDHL
ADP-ribosylation factor GTPase-activating protein 1, sequence (Q62848 whole entry): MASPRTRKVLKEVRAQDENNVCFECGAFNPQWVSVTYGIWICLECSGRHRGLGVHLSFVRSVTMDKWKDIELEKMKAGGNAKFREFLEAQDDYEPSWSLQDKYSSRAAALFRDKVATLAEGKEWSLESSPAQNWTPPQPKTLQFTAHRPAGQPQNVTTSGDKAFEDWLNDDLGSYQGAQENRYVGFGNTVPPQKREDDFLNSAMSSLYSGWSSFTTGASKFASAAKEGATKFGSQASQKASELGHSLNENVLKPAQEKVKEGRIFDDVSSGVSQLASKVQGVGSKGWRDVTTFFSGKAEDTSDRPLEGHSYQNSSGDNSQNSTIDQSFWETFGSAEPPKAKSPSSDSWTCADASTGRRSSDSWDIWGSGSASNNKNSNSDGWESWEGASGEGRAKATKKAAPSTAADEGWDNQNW
Disintegrin and metalloproteinase domain-containing protein 17, sequence (P78536 whole entry, the tested form may be a part): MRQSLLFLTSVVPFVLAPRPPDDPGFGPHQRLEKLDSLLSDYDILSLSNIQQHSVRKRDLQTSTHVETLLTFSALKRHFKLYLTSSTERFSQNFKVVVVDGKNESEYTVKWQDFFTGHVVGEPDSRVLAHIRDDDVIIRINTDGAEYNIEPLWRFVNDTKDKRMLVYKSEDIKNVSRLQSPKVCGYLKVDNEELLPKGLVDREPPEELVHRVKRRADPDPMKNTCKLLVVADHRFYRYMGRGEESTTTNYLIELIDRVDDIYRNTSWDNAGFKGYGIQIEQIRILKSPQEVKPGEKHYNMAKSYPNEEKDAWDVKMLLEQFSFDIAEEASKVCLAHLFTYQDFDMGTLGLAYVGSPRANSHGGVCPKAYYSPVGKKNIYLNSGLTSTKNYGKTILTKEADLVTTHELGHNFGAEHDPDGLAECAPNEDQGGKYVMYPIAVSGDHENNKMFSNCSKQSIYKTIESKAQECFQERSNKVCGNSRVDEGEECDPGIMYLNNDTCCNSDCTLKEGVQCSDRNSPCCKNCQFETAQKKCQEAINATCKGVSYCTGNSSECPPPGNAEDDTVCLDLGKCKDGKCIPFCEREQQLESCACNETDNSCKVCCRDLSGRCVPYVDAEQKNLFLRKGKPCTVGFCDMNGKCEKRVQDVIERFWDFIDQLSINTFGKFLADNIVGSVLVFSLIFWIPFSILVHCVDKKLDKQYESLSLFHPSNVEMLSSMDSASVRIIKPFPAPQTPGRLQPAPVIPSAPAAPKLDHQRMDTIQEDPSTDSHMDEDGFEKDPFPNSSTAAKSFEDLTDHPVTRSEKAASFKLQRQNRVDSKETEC
Galanin receptor type 3, sequence (O60755 whole entry): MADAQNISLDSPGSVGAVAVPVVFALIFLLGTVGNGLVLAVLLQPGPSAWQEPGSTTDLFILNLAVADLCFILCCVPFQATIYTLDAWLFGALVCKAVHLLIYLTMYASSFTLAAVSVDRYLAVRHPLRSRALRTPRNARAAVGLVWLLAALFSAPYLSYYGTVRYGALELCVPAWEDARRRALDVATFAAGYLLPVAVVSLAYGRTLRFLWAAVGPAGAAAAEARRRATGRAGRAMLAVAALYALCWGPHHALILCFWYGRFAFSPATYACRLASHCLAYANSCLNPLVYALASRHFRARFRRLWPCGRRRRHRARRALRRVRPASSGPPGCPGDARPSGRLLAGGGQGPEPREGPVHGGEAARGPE
Endoplasmic reticulum aminopeptidase 1, sequence (Q9NZ08 whole entry): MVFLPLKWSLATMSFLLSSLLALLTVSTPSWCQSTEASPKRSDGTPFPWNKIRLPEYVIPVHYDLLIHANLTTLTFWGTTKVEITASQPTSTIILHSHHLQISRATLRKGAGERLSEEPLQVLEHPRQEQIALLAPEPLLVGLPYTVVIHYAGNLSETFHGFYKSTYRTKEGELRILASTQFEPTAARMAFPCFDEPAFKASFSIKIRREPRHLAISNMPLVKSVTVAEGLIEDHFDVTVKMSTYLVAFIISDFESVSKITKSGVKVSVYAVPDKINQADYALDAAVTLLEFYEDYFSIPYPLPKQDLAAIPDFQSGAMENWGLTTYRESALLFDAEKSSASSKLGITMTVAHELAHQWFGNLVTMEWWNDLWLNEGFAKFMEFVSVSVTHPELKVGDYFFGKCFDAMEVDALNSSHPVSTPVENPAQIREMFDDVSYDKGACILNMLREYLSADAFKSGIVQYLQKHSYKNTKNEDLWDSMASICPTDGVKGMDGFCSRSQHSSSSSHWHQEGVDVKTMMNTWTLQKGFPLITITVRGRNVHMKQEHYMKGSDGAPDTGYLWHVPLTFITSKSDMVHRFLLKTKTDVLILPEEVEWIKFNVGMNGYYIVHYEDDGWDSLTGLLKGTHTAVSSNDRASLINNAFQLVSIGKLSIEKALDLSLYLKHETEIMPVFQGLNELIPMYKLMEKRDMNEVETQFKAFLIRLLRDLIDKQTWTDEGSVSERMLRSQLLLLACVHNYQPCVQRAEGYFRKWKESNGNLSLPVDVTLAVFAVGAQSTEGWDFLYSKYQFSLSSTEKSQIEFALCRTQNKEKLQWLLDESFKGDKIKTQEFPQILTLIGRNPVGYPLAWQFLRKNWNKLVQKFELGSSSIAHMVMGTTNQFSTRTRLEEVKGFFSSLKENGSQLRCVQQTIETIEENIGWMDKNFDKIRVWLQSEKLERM

SMILES: CSC(=S)N/N=C/c1c[nH]c2ccccc12
IC50 [1]: 2.6 µM (active) | EC50 [2]: > 29.9 µM (inactive) | IC50 [3]: 28.1 µM (inactive) | EC50 [4]: > 29.9 µM (inactive)

SMILES: COc1ccccc1C#Cc1cnc2c(c1)C(=O)N([C@H](C)CO)C[C@H](C)[C@@H](CN(C)C(=O)c1ccc3c(c1)OCO3)O2
AC50 [5]: 13.6 µM (active) | AbsAC35 [6]: 41.32 µM | AbsAC35 [7]: 52.21 µM

SMILES: O=C1C=C(Nc2cccc(Cl)c2)C(=O)c2ccccc21
AC50 [8]: 0.683 µM (active) | AC50 [9]: 23.9 µM (active) | AC50 [10]: 22.3 µM (active)

AC50 [11]: 11.3 µM (active)
SMILES: Cc1cc(N(C)Cc2ccccc2)nc2cc(O)ccc12

SMILES: Cc1cc(-c2ccccc2)c2ccc(NC(=O)C(C)(C)C)nc2n1
AC50 (cells [12]): > 52 µM (inactive) | EC50 [13]: > 195 µM (not active)

IC50 [14]: 8.39 µM (active) | IC50 [15]: > 69.5 µM (inactive) | IC50 [16]: 7.16 µM (not active)
SMILES: O=C(COC(=O)CCCSc1nc2ccccc2[nH]1)Nc1ccc(Oc2ccccc2)cc1

EC50 [17]: 8.76 µM (active) | EC50 [18]: 1.71 µM (active)
SMILES: CC1(C)Cc2c(c(N3CCCC3)nc3sc4c(N5CCN(CCO)CC5)ncnc4c23)CO1

SMILES: Cc1onc(-c2ccccc2Cl)c1C(=O)NNC(=O)c1cccc(F)c1
IC50 (Galanin receptor type 3): > 29.9 µM (inactive) | EC50 (cells [19]): > 29.9 µM (inactive)

IC50 [20]: 82.7 µM (inactive)
SMILES: CCN1CCN(C(=O)Cn2ncc3c4cc(C)ccc4nc-3c2O)CC1

SMILES: Cc1ccc(S(=O)(=O)Nc2ccc3c(c2)C(=O)N([C@H](C)CO)C[C@H](C)[C@@H](CN(C)S(=O)(=O)c2ccc(F)cc2)OCCCC[C@H](C)O3)cc1
AC50 [21]: 9 µM (active) | AC50 [22]: 6.87 µM (active) | AC50 (Paired box protein Pax-8): 2.11 µM (active) | AC50 [23]: 7.45 µM (active) | AC50 [24]: 11 µM (active) | AC50 [25]: 14.8 µM (active)
